Data set [1] addresses T1, PDE 2 enzyme isolated from human platelets (Homo sapiens, UniProt O00408).
T1 construct: PDE 2 enzyme was isolated from human platelets; from tissue; host or cells: human platelets (pooled blood from multiple donors); HiTrap Q anion-exchange fraction eluting at about 325 mM NaCl
In words: PDE 2 enzyme scintillation proximity assay (SPA). It is filed as biochemical. The protocol: PDE 2 enzyme was isolated from human platelets with approximately 1.4 L of blood from multiple donors used to make the platelet pellets. Platelets were resuspended in approximately 75 mL of lysis buffer [20 mM Tris pH 7.2, 5 mM MgCl2, 250 mM Sucrose, 1 mM DTT, 1 μL/2 mL Sigma Protease inhibitor #8340; Sigma-Aldrich; St. Louis, Mo.] and lysed by sonication at 4° C., with 3 rounds of 1 min bursts then spun at 4° C. overnight at 100,000×g. Cleared lysates were loaded to AKTA Explorer FPLC (Amersham Biosciences; Piscataway, N.J.) in a series of three chromatographic separations, with an average load volume of 25 mL. A 5 mL HiTrap Q anion exchange column (Amersham Biosciences) was used. […] Two major cGMP activity fractions (PDE 5 and PDE 2) were isolated and pooled separately. The PDE 2-pooled fraction total was approximately 40 mL which was dispensed in cryovials of 200 μl/vial and placed in storage at −80° C.
The inhibitory activity of the compounds of formula (I) on recombinant or isolated PDE 2, and other PDE's, was determined using the […] scintillation proximity assay (SPA) kits from Amersham International (Little Chalfont, England). The SPA assays were performed using 96 well plates. The PDE SPA yttrium silicate beads (Amersham Biosciences) bind preferentially to the linear nucleotide, GMP, compared to the cyclic nucleotide, cGMP. ^3H-cGMP was added to the reaction and when the product, ^3H-GMP, was in […] to the beads, the scintillant within the bead was excited, which was detected using a Packard scintillation counter (Perkin-Elmer Life Sciences; Boston, Mass.). The enzyme concentration used was in the linear range and the Km of the enzyme was determined (15 uM). The final substrate concentration was <1/3 of Km (1 μM) so that IC50 values would approximate the Ki values. The assay was validated using literature compounds as controls before testing compounds. Then, PDE catalytic activity measurements obtained in the presence of the test compound, and those obtained in the absence of the test compound, were compared and the lC50 value is determined. […]
Background: In a scintillation proximity assay essentially only radioactivity close to the scintillant gives light.

The subject of data set [2] is femur (periosteal bone induction). Description: Rat periosteal injection model. In kind it is in vivo. Conditions: daily local injection five times per week for two weeks; Day 15; male Sprague-Dawley rats. As to the method: Rats were anesthetized with isoflurane (2-3 min) in a conduction chamber located in a fume hood. The right hindlimb of each rat was shaved and cleaned. A 25 gauge needle attached to a syringe was pre-filled with a formulation of the test compound for local injection. The formulation was injected onto the subperiosteum of femur in a volume of 5-15 μL for 14 days. The rats were sacrificed after dosing, the femurs were collected, and then analyzed by radiography and dual-energy X-ray absorptiometry (DEXA).
The right femur of three-week old male Sprague-Dawley rats received a daily injection of vehicle or test compound five times per week for two weeks. On Day 15, all rats were sacrificed and the right femurs were collected for analysis. Periosteal bone induction was assessed using radiography and DEXA. […] The bone mineral content (BMC) of the injected region of the femur (area between lesser trochanter and mid-shaft of the femur) was assessed by DEXA comparing rats treated with test compound with those treated only with vehicle. In this model, N^4-(3,5-dimethoxy-benzyl)-N^2-(2-pyridin-4-yl-ethyl)-pyrido[2,3-d]pyrimidine-2,4-diamine, 2-(3-{3-[4-(3,4-dimethoxy-benzylamino)-pyrido[2,3-d]pyrimidin-2-ylamino]-propyl}-phenyl)-propan-2-ol, and N^4-(3,4-dimethoxy-benzyl)-N^2-(3-phenyl-propyl)-pyrido[2,3-d]pyrimidine-2,4-diamine increased BMC by 34%, 49%, and 33% respectively. Additionally, 9-(1-acetyl-4-phenyl-butyl)-2-(3,4-dimethoxy-benzyl)-1,9-dihydropurin-6-one increased BMC by 20% in the aforementioned model.

In the next data set the test system is fractured right femurs. In words: Rat transverse femoral fracture model. In kind it is in vivo. Conditions: single 5 mg dose injected percutaneously into fracture site; three weeks after injection; male rats. As to the method:
Male Sprague-Dawley rats at 3 to 4 months of age were used. The animals were anesthetized with ketamine and xylazine at doses of 100 and 10 mg/kg, respectively. The right hindlimb of each rat was shaved and cleaned. A 1 cm incision was made just lateral to the patella and the femoral condyle was exposed. A Kirschner wire (0.045″ in diameter) was introduced into the intramedullary canal through the intercondylar portion to serve as an internal stabilization. The muscle incision was closed with vicryl and the skin incision was closed with stainless steel wound clips. The mid-diaphysis of the pinned femur was fractured by means of a three-point bending device driven by a dropped weight. The rats were permitted full weight-bearing and unrestricted activity after awakening from anesthesia. The test compounds were administered on various days after surgery by percutaneous injection onto the fracture site. The animals were sacrificed after treatment and the femurs were collected for analysis. Fracture healing was evaluated by using radiography, histological, and biomechanical test (F. Bonnarens, et al., Journal of Orthopaedic Research, 2, 97-101 (1984).
Three month-old male rats were subjected to transverse fracture of their right femurs under general anesthesia. […] Three weeks after the injections, the rats were sacrificed and the right femurs were harvested and analyzed. […]

Where [3] appears, read: SPA, 1 μM substrate, read-out: PDE 2 Inhibition.

This is an account of results in patent publication US20070135457A1, “Pyrido[2,3-d]pyrimidine-2,4-diamines as pde2 inhibitors” (Pfizer Inc., priority 2003, published 2007).

Where two headings read alike, the source gives them in different places.

T1 sequence (O00408 whole entry): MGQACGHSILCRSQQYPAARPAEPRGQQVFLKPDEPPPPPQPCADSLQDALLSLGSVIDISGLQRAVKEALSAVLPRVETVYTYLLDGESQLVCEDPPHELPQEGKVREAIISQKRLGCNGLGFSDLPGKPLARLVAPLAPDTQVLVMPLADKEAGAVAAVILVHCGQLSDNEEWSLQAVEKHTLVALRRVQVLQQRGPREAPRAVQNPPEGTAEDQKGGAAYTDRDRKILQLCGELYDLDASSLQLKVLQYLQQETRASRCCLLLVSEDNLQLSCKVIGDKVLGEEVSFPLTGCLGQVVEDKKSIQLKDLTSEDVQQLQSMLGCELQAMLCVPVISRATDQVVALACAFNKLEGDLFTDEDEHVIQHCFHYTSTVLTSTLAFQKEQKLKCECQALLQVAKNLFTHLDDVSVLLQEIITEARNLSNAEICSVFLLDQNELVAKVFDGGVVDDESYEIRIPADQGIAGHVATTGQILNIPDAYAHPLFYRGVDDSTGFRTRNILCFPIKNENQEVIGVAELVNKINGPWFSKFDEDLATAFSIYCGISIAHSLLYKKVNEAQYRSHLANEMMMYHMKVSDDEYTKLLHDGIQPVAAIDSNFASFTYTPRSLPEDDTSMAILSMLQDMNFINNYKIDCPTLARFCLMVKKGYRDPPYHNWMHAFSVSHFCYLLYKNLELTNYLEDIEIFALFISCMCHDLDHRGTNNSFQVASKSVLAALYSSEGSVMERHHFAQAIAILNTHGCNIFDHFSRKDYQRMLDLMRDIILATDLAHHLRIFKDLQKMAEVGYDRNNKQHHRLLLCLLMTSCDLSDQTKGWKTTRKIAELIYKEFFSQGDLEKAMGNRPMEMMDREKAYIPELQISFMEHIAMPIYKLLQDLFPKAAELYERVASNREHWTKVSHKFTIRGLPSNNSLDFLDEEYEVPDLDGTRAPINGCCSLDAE

As to `COc1ccc(Cc2nc3c(ncn3C(CCCc3ccccc3)C(C)=O)c(=O)[nH]2)cc1OC` (centres unmarked) [9-(1-acetyl-4-phenyl-butyl)-2-(3,4-dimethoxy-benzyl)-1,9-dihydropurin-6-one, reference compound], the IC50 in data set [1] (PDE 2, read-out: IC50) came to 0.003 µM. Also, in data set [2], the “bone mineral content (BMC) increase of injected region of femur by DEXA vs vehicle” value (from here on “bone mineral content (BMC) increase”) is 20%.

The term melting point denotes the temperature, or range, at which the solid turns liquid. Take `COc1cc(CNc2nc(NCCc3ccncc3)nc3ncccc23)cc(OC)c1` [Example 3, N^4-(3,5-Dimethoxy-benzyl)-N^2-(2-pyridin-4-yl-ethyl)-pyrido[2,3-d]pyrimidine-2,4-diamine]: the melting point was 234 to 235 °C. In addition, the IC50 in data set [1] (setting [3]) fell in the range of 0.25 to 1 µM. Further, the “bone mineral content (BMC) increase” value in data set [2] was determined as 34%.

Compound `COc1ccc(CNc2nc(NCc3ccc(C(O)C(F)(F)F)cc3)nc3ncccc23)cc1OC` (centres unmarked) [Example 23, 1-(4-{[4-(3,4-Dimethoxy-benzylamino)-pyrido[2,3-d]pyrimidin-2-ylamino]-methyl}-phenyl)-2,2,2-trifluoro-ethanol] showed a melting point of 121 to 122 °C. Besides, the IC50 in data set [1] (setting [3]) lay within 0.25 to 1 µM.

With `COc1ccc(CNc2nc(NCCCc3ccc(C(C)=O)cc3)nc3ncccc23)cc1OC` [Example 24, 1-(4-{3-[4-(3,4-Dimethoxy-benzylamino)-pyrido[2,3-d]pyrimidin-2-ylamino]-propyl}-phenyl)-ethanone], the melting point lay within 184 to 185 °C. Further, the IC50 in data set [1] (setting [3]) fell in the range of 0.25 to 1 µM.

`COc1ccc(CNc2nc(NCCCc3ccc(C(O)C(F)(F)F)cc3)nc3ncccc23)cc1OC` (centres unmarked) [Example 25, 1-(4-{3-[4-(3,4-Dimethoxy-benzylamino)-pyrido[2,3-d]pyrimidin-2-ylamino]-propyl}-phenyl)-2,2,2-trifluoro-ethanol]: the melting point is 222 to 224 °C. Besides, the IC50 in data set [1] (setting [3]) fell in the range of 0.05 to 0.25 µM.

The compound `COc1ccc(CNc2nc(NCCCc3ccc4nonc4c3)nc3ncccc23)cc1OC` [Example 26, N^2-3-(Benzo[1,2,5]oxadiazol-5-yl-propyl)-N^4-(3,4-dimethoxy-benzyl)-pyrido[2,3-d]pyrrimidine-2,4-diamine] returned a melting point of 191 to 193 °C. Further, the IC50 in data set [1] (setting [3]) was 0.25 to 1 µM.

Turning to `COc1ccc(CNc2nc(NCCCc3ccc4ncsc4c3)nc3ncccc23)cc1OC` [Example 27, N^2-3-(Benzothiazol-6-yl-propyl)-N^4-(3,4-dimethoxy-benzyl)-pyrido[2,3d]pyrimidine-2,4-diamine], the melting point was in the range of 191 to 193 °C. Also, the IC50 in data set [1] (setting [3]) is 0.25 to 1 µM.

With `COc1ccc(CNc2nc(NCCCc3cccc(C(C)(C)O)c3)nc3ncccc23)cc1OC` [Example 29, 2-(3-{3-[4-(3,4-Dimethoxy-benzylamino)-pyrido[2,3-d]pyrimidin-2-ylamino]-propyl}-phenyl)-propan-2-ol], the melting point was 204 to 205 °C. Besides, the IC50 in data set [1] (setting [3]) was in the range of 0.25 to 1 µM. Besides, the “bone mineral content (BMC) increase” value in data set [2] was 49%.

`COc1ccc(CNc2nc(NCCCc3ccc(C#N)cc3)nc3ncccc23)cc1OC` [Example 30, 4-{3-[4-(3,4-Dimethoxy-benzylamino)-pyrido[2,3-d]pyrimidin-2-ylamino]-propyl}-benzonitrile] registered a melting point of 220 to 222 °C. Besides, the IC50 in data set [1] (setting [3]) was 0.25 to 1 µM.

Consider `COc1ccc(CNc2nc(NCCCc3ccccc3)nc3ncccc23)cc1OC` [Example 32, N^4-(3,4-Dimethoxy-benzyl)-N^2-(3-phenyl-propyl)-pyrido[2,3-d]pyrimidine-2,4-diamine], for which the melting point was in the range of 190 to 192 °C. The IC50 in data set [1] (setting [3]) fell in the range of 0.25 to 1 µM. For the same compound, the “bone mineral content (BMC) increase” value in data set [2] came to 33%. For the same compound, in the data set with fractured right femurs, the “Force-to-failure increased compared to placebo” value amounted to 19% and the “stiffness increased compared to placebo” value came out at 62%.

On to `COc1cc(CNc2nc(NCCOc3ccccc3)nc3ncccc23)cc(OC)c1` [Example 33, N^4-(3,5-Dimethoxy-benzyl)-N^2-(3-phenoxy-ethyl)-pyrido[2,3-d]pyrimidine-2,4-diamine], for which the melting point lay within 165 to 167 °C. Further, the IC50 in data set [1] (setting [3]) is 0.05 to 0.25 µM.

`CCOc1cc(CNc2nc(NCCCc3ccccc3)nc3ncccc23)ccc1OC` [Example 34, N^4-(3-Ethoxy-4-methoxy-benzyl)-N^2-(3-phenyl-propyl)-pyrido[2,3-d]pyrimidine-2,4-diamine] had a melting point of 181 to 182 °C. Further, the IC50 in data set [1] (setting [3]) was 0.25 to 1 µM.

The compound `CCOc1cc(CNc2nc(NCCCc3ccc(C(C)(C)O)cc3)nc3ncccc23)ccc1OC` [Example 35, 2-(4-{3-[4-(3-Ethoxy-4-methoxy-benzylamino)-pyrido[2,3-d]pyrimidin-2-ylamino]-propyl}-phenyl)-propan-2-ol] showed a melting point of 150 to 152 °C. Moreover, in data set [1] (setting [3]), the IC50 lay in the range of 0.25 to 1 µM.

`COc1ccc(CNc2nc(NCCCc3ccc(C(=O)C(F)(F)F)cc3)nc3ncccc23)cc1OC` [Example 36, 1-(4-{3-[4-(3,4-Dimethoxy-benzylamino)-pyrido[2,3-d]pyrimidin-2-ylamino]-propyl}-phenyl)-2,2,2-trifluoro-ethanone]: the melting point was 198 to 200 °C. Besides, in data set [1] (setting [3]), the IC50 lay within 0.25 to 1 µM.

In turn, `COc1ccc(CNc2nc(NCCCc3cccc(C(C)=O)c3)nc3ncccc23)cc1OC` [Example 37, 1-(3-{3-[4-(3,4-Dimethoxy-benzylamino)-pyrido[2,3-d]pyrimidin-2-ylamino]-propyl}-phenyl)-ethanone] had a melting point of 152 to 155 °C. For the same compound, the IC50 in data set [1] (setting [3]) lay in the range of 0.25 to 1 µM.
